The target in one data set is T1, FXR (Homo sapiens, UniProt Q96RI1).
T1 construct: 5 μL of 20 nM FXR-LBD Complete Coregulator buffer G; purchased ThermoFisher PV4833
T1 sequence (Q96RI1 262-486 limits assumed): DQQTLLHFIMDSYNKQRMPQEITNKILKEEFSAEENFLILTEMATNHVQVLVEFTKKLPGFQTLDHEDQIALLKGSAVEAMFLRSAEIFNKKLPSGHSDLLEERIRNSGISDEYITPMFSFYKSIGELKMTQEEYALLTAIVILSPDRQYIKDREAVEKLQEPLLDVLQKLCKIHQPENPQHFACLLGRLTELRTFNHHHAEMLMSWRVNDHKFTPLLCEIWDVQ
Description: FXR antagonist screening by TR-FRET (LanthaScreen TR-FRET FXR co-activation assay kit). Type of data set: biochemical. As to conditions: Table 1.1, FXR antagonistic activity; TR-FRET with CDCA; geometric means of at least two independent runs. The method, boiled down: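 FXR-LBD (20 nM working solution) mixed with compound, CDCA (200 μM working solution) as agonist, Fluorescein-SRC2-2 and Tb-anti-GST antibody in Coregulator buffer G; 10 h at room temperature. Coactivator recruitment read by TR-FRET, triplicate wells.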
Background: In TR-FRET formats the signal depends on donor and acceptor labels being close together.

The IC50 is the concentration at which inhibition is half-maximal. Higher therefore signals weaker potency. For orientation: melting point means the temperature of the solid-liquid transition.

`Cc1c(C(=O)O)oc2ccc(S(=O)(=O)N(CCc3ccccc3)c3ccc(CN4CCN(C(=O)OC(C)(C)C)CC4)cc3)cc12` [Example F27-S76, 3-methyl-5-(N-(4-((4-(tert-butoxycarbonyl)piperazin-1-yl)methyl)phenyl)-N-phenethylsulfonamide)benzofuran-2-carboxylic acid] displayed a melting point of 234 to 235 °C. In addition, the IC50 against FXR fell in the range of 10 to 50 µM.

`Cc1c(C(=O)O)oc2ccc(S(=O)(=O)N(CCc3ccccc3)c3ccccc3N3CCN(C(=O)OC(C)(C)C)CC3)cc12` [Example F27-S77, 3-methyl-5-(N-(2-(4-(tert-butoxycarbonyl)piperazin-1-yl)phenyl)-N-phenethylsulfamoyl)benzofuran-2-carboxylic acid] displayed a melting point of 168 to 169 °C. On FXR, this compound returned an IC50 of 0.1 to 10 µM.

`Cc1c(C(=O)O)oc2ccc(S(=O)(=O)N(CCc3ccccc3)c3cccc(N4CCN(C)CC4)c3)cc12` [Example F27-S78, 3-methyl-5-(N-(3-(4-methylpiperazin-1-yl)phenyl)-N-phenethylsulfamoyl)benzofuran-2-carboxylic acid] showed a melting point of 232 to 233 °C. In addition, the IC50 on FXR was 50 to 100 µM.

As for `Cc1c(C(=O)O)oc2ccc(S(=O)(=O)N(CCc3ccccc3)Cc3ccc(N4CCOCC4)cc3)cc12` [Example F27-S79], the melting point was > 380 °C (dec.). The compound also registered a 50% inhibitory concentration (IC50) on FXR of 50 to 100 µM.

Take `Cc1c(C(=O)O)oc2ccc(S(=O)(=O)N(CCc3ccccc3)Cc3ccc(-c4ccccc4)cc3)cc12` [Example F27-S82, 3-methyl-5-(N-([1,1′-biphenyl]-4-ylmethyl)-N-phenethylsulfamoyl)benzofuran-2-carboxylic acid]: the melting point is > 380 °C (dec.). This compound also showed an IC50 on FXR of 50 to 100 µM.

For `Cc1c(C(=O)O)oc2ccc(S(=O)(=O)N(CCc3ccccc3)Cc3ccc(-c4ccccc4C#N)cc3)cc12` [Example F27-S83], the melting point fell in the range of 197 to 198 °C. At FXR, this compound registered an IC50 of 10 to 50 µM.

With `Cc1c(C(=O)O)oc2ccc(S(=O)(=O)N(CCc3ccccc3)Cc3ccc(-c4ccccc4C(=O)OC(C)(C)C)cc3)cc12` [Example F27-S84, 3-methyl-5-(N-((2′-(tert-butoxycarbonyl)-[1,1′-biphenyl]-4-yl)methyl)-N-phenethylsulfamoyl)benzofuran-2-carboxylic acid], the melting point lay within 197 to 198 °C. For the same compound, on FXR, the IC50 lay in the range of 10 to 50 µM.

Regarding `Cc1c(C(=O)O)oc2ccc(S(=O)(=O)N(CCc3ccccc3)Cc3ccc(C(=O)c4ccccc4)cc3)cc12` [Example F27-S85, 3-methyl-5-(N-(4-benzoylbenzyl)-N-phenethylsulfamoyl)benzofuran-2-carboxylic acid], the melting point lay in the range of 192 to 193 °C. The IC50 at FXR lay within 10 to 50 µM.

As to `Cc1c(C(=O)O)oc2ccc(S(=O)(=O)N(CCc3ccccc3)Cc3cccc(N4CCN(C(=O)OC(C)(C)C)CC4)c3)cc12` [Example F27-S88, 3-methyl-5-(N-(3-(4-(tert-butoxycarbonyl)piperazin-1-yl)benzyl)-N-phenethylsulfamoyl)benzofuran-2-carboxylic acid], the melting point is 104 to 105 °C. For the same compound, the IC50 against FXR was in the range of 0.1 to 10 µM.

Consider `Cc1c(C(=O)O)oc2ccc(S(=O)(=O)N(CCc3ccccc3)c3ccccc3N3CCNCC3)cc12` [Example F27-S89, 3-methyl-5-(N-phenethyl-N-(2-(piperazin-1-yl)phenyl)sulfamoyl)benzofuran-2-carboxylic acid], for which the melting point is 172 to 173 °C. In addition, the IC50 against FXR fell in the range of 50 to 100 µM.

Regarding `Cc1c(C(=O)O)oc2ccc(S(=O)(=O)N(CCc3ccccc3)c3ccccc3N3CC[N+](C)(C)CC3)cc12` [Example F27-S90, 4-(2-((2-carboxy-3-methyl-N-phenethylbenzofuran)-5-sulfonylamino)phenyl)-1,1-dimethylpiperazin-1-ium], the melting point lay within 246 to 247 °C. Besides, the IC50 against FXR is 50 to 100 µM.

Consider `CC(=O)N1CCN(c2ccccc2N(CCc2ccccc2)S(=O)(=O)c2ccc3oc(C(=O)O)c(C)c3c2)CC1` [Example F27-S91, 3-methyl-5-(N-(2-(4-acetylpiperazin-1-yl)phenyl)-N-phenethylsulfamoyl)benzofuran-2-carboxylic acid], for which the melting point lay within 196 to 197 °C. The compound further came in with a 50% inhibitory concentration (IC50) against FXR of 50 to 100 µM.

As to `Cc1c(C(=O)O)oc2ccc(S(=O)(=O)N(CCc3ccccc3)c3ccccc3N3CCN(C(=O)N(C)C)CC3)cc12` [Example F27-S92, 3-methyl-5-(N-(2-(4-(dimethylcarbamoyl)piperazin-1-yl)phenyl)-N-phenethylsulfamoyl)benzofuran-2-carboxylic acid], the melting point is > 380 °C (dec.). The IC50 on FXR lay within 10 to 50 µM.

`Cc1c(C(=O)O)oc2ccc(S(=O)(=O)N(CCc3ccccc3)c3ccccc3N3CCN(S(C)(=O)=O)CC3)cc12` [Example F27-S93, 3-methyl-5-(N-(2-(4-(methylsulfonyl)piperazin-1-yl)phenyl)-N-phenethylsulfamoyl)benzofuran-2-carboxylic acid] had a melting point of 144 to 145 °C. The compound further had an IC50 at FXR of 10 to 50 µM.

Compound `Cc1c(C(=O)O)oc2ccc(S(=O)(=O)N(CCc3ccccc3)c3ccccc3N3CCN(C(=O)CC(C)(C)C)CC3)cc12` [Example F27-S94] had a melting point of 191 to 192 °C. On FXR, this compound gave an IC50 of 0.1 to 10 µM.

Consider `Cc1c(C(=O)O)oc2ccc(S(=O)(=O)N(CCc3ccccc3)c3ccccc3N3CCN(Cc4ccccc4)CC3)cc12` [Example F27-S95], for which the melting point fell in the range of 161 to 162 °C. Also, at FXR, the IC50 was in the range of 10 to 50 µM.

For the compound `Cc1c(C(=O)O)oc2ccc(S(=O)(=O)N(CCc3ccccc3)Cc3ccccc3N3CCNCC3)cc12` [Example F27-S97, 3-methyl-5-(N-(2-(piperazin-1-yl)benzyl)-N-phenethylsulfamoyl)benzofuran-2-carboxylic acid], the melting point was in the range of 223 to 224 °C. Further, at FXR, the IC50 was 50 to 100 µM.

The compound `Cc1c(C(=O)O)oc2ccc(S(=O)(=O)N(CCc3ccccc3)Cc3ccccc3N3CC[N+](C)(C)CC3)cc12` [Example F27-S99, 4-(2-(((2-carboxy-3-methyl-N-phenethylbenzofuran)-5-sulfonamido)methyl)phenyl)-1,1-dimethylpiperazin-1-ium] returned a melting point of 143 to 144 °C. On FXR, the IC50 lay within 50 to 100 µM.

`CC(=O)N1CCN(c2ccccc2CN(CCc2ccccc2)S(=O)(=O)c2ccc3oc(C(=O)O)c(C)c3c2)CC1` [Example F27-S100, 3-methyl-5-(N-(2-(4-acetylpiperazin-1-yl)benzyl)-N-phenethylsulfamoyl)benzofuran-2-carboxylic acid] yielded a melting point of 236 to 237 °C. Also, the IC50 at FXR lay in the range of 10 to 50 µM.

As for `Cc1c(C(=O)O)oc2ccc(S(=O)(=O)N(CCc3ccccc3)Cc3ccccc3N3CCN(S(C)(=O)=O)CC3)cc12` [Example F27-S102, 3-methyl-5-(N-(2-(4-(methylsulfonyl)piperazin-1-yl)benzyl)-N-phenethylsulfamoyl)benzofuran-2-carboxylic acid], the melting point lay within 150 to 151 °C. On FXR, this compound came in with an IC50 of 50 to 100 µM.

Compound `Cc1c(C(=O)O)oc2ccc(S(=O)(=O)N(CCc3ccccc3)Cc3ccccc3N3CCN(C(=O)CC(C)(C)C)CC3)cc12` [Example F27-S103] yielded a melting point of 190 to 191 °C. Also, at FXR, the IC50 was in the range of 10 to 50 µM.

Take `Cc1c(C(=O)O)oc2ccc(S(=O)(=O)N(CCc3ccccc3)Cc3ccccc3N3CCN(Cc4ccccc4)CC3)cc12` [Example F27-S104, 3-methyl-5-(N-(2-(4-benzylpiperazin-1-yl)benzyl)-N-phenethylsulfamoyl)benzofuran-2-carboxylic acid]: the melting point lay in the range of 154 to 155 °C. The compound also registered an IC50 on FXR of 50 to 100 µM.

These data come from patent US20240239775A1, “FXR REGULATOR, PREPARATION METHOD THEREFOR, PHARMACEUTICAL COMPOSITION THEREOF AND USE THEREOF” (QINGDAO RUIJI MEDICAL TECHNOLOGY CO., LTD., priority 2021, published 2024).
